# Biological target: T1, FLT3-D835Y mutant kinase (Homo sapiens, UniProt P36888, D835Y)
# T1 construct: purchased SignalChem
# T1 sequence (P36888 27-993 D835Y): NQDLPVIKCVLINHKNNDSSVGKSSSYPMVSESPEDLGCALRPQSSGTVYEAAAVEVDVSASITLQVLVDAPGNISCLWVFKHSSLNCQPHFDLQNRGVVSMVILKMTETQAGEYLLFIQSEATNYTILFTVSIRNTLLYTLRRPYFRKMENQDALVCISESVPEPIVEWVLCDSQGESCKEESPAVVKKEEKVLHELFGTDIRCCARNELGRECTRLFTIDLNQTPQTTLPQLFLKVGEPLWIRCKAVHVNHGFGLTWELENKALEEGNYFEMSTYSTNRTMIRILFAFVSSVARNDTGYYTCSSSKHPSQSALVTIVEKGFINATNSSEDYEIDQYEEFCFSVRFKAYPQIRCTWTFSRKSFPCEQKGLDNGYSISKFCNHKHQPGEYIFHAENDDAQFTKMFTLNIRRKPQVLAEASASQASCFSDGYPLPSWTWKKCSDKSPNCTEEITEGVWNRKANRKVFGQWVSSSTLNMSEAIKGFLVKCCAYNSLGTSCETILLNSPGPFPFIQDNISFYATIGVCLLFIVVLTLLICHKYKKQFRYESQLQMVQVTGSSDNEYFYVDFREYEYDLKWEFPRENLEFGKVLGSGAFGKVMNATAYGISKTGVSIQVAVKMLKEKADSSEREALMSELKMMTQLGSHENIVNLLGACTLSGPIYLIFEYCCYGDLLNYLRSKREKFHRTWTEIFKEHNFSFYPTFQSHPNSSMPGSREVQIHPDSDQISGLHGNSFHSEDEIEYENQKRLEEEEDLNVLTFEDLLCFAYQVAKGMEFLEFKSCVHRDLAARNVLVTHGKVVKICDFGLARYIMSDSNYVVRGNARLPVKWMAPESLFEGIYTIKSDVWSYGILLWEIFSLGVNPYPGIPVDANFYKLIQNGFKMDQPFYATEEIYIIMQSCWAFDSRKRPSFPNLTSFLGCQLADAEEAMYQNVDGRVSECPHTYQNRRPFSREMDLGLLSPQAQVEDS
# Assay: FLT3-D835Y mutant kinase assay (AlphaScreen)
# Type: biochemical
# Conditions: read-out: Ranking of IC50 values, FLT3-D835Y
# Summary of the method: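 Recombinant FLT3-D835Y (1 ng) phosphorylated biotin-poly(Glu4:Tyr1) at 10 μM ATP, pH 7.0 MOPS buffer with 10 mM MgCl2, for 30 min at 30 °C, stopped with EDTA. Product was read by AlphaScreen. IC50 came from serial dilutions run in duplicate.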
row,Structure (SMILES),IC50 [nM]
1,"COc1ccc(-c2cc3c(s2)Cc2c(-c4ccc5cnn(C)c5c4)n[nH]c2-3)cn1 [Compound 4, 6-(6-methoxypyridin-3-yl)-3-(1-methyl-1H-indazol-6-yl)-1,4-dihydrothieno [2′,3′:4,5]cyclopenta[1,2-c] pyrazole]",< 1
2,"Cc1n[nH]c2cc(-c3n[nH]c4c3Cc3sc(-c5ccc(CN6CCOCC6)cc5)cc3-4)ccc12 [Compound 81, 4-(4-(3-(3-methyl-1H-indazol-6-yl)-1,4-dihydro-thieno[2′,3′:4,5]cyclopenta [1,2-c]pyrazol-6-yl)benzyl)morpholine]",1 to 10
3,"Cn1ncc2ccc(-c3n[nH]c4c3Cc3sc(-c5ccc(N6CCOCC6)nc5)cc3-4)cc21 [Compound 82, 4-(5-(3-(1-methyl-1H-indazol-6-yl)-1,4-dihydro-thieno[2′,3′:4,5]cyclopenta [1,2-c]pyrazol-6-yl)pyridin-2-yl)morpholine]",1 to 10
4,"CN1CCN(Cc2ccc(-c3cc4c(s3)Cc3c(-c5ccc6cn[nH]c6c5)n[nH]c3-4)cc2)CC1 [Compound 83, 3-(1H-indazol-6-yl)-6-(4-((4-methylpiperazin-1-yl)methyl)phenyl)-1,4-dihydrothieno[2′,3′:4,5] cyclopenta[1,2-c]pyrazole]",< 1
5,"CN1CCN(Cc2ccc(-c3cc4c(s3)Cc3c(-c5ccc6cnn(C)c6c5)n[nH]c3-4)cc2)CC1 [Compound 84, 3-(1-methyl-1H-indazol-6-yl)-6-(4-((4-methylpiperazin-1-yl)methyl)phenyl)-1,4-dihydrothieno [2′,3′:4,5]cyclopenta [1,2-c]pyrazole]",< 1
6,"CN1CCN(c2ccc(-c3cc4c(s3)Cc3c(-c5ccc6cnn(C)c6c5)n[nH]c3-4)cn2)CC1 [Compound 85, 3-(1-methyl-1H-indazol-6-yl)-6-(6-(4-methyl-piperazin-1-yl)pyridin-3-yl)-1,4-dihydrothieno [2′,3′:4,5]cyclopenta [1,2-c]pyrazole]",< 1
7,"Cn1ncc2ccc(-c3n[nH]c4c3Cc3sc(-c5ccnc(Cl)c5)cc3-4)cc21 [Compound 86, 6-(2-chloropyridin-4-yl)-3-(1-methyl-1H-indazol-6-yl)-1,4-dihydrothieno [2′,3′:4,5]cyclopenta [1,2-c]pyrazole]",1 to 10
8,"CN1CCN(c2cc(-c3cc4c(s3)Cc3c(-c5ccc6cnn(C)c6c5)n[nH]c3-4)ccn2)CC1 [Compound 87, 3-(1-methyl-1H-indazol-6-yl)-6-(2-(4-methyl-piperazin-1-yl)pyridin-4-yl)-1,4-dihydrothieno [2′,3′:4,5]cyclopenta [1,2-c]pyrazole]",< 1
9,"Cn1ncc2ccc(-c3n[nH]c4c3Cc3sc(-c5ccc(CN6CCOCC6)c(F)c5F)cc3-4)cc21 [Compound 88, 4-(2,3-difluoro-4-(3-(1-methyl-1H-indazol-6-yl)-1,4-dihydrothieno [2′,3′:4,5]cyclopenta [1,2-c]pyrazol-6-yl)benzyl)morpholine]",1 to 10
10,"Cn1nnc2ccc(-c3n[nH]c4c3Cc3sc(-c5ccc(CN6CCOCC6)cc5)cc3-4)cc21 [Compound 89, 4-(4-(3-(1-methyl-1H-benzo[d][1,2,3]triazol-6-yl)-1,4-dihydrothieno [2′,3′:4,5]cyclopenta [1,2-c]pyrazol-6-yl)benzyl)morpholine]",1 to 10
11,"Cn1ncc2ccc(-c3n[nH]c4c3Cc3sc(-c5ccc(CN6CCOCC6)cc5OC(F)(F)F)cc3-4)cc21 [Compound 90, 4-(4-(3-(1-methyl-1H-indazol-6-yl)-1,4-dihydro-thieno[2′,3′:4,5]cyclopenta [1,2-c]pyrazol-6-yl)-3-(trifluoromethoxy)benzyl) morpholine]",1 to 10
12,"Cc1cc(CN2CCOCC2)ccc1-c1cc2c(s1)Cc1c(-c3ccc4cnn(C)c4c3)n[nH]c1-2 [Compound 91, 4-(3-methyl-4-(3-(1-methyl-1H-indazol-6-yl)-1,4-dihydrothieno [2′,3′:4,5]cyclopenta [1,2-c]pyrazol-6-yl)benzyl)morpholine]",1 to 10
13,"Cn1ncc2ccc(-c3n[nH]c4c3Cc3sc(-c5ccc(N)nc5)cc3-4)cc21 [Compound 92, 5-(3-(1-methyl-1H-indazol-6-yl)-1,4-dihydro-thieno[2′,3′:4,5]cyclopenta [1,2-c]pyrazol-6-yl) pyridin-2-amine]",< 1
14,"CN(C)Cc1ccc(-c2cc3c(s2)Cc2c(-c4ccc5cnn(C)c5c4)n[nH]c2-3)cn1 [Compound 93, N,N-dimethyl-1-(5-(3-(1-methyl-1H-indazol-6-yl)-1,4-dihydrothieno [2′,3′:4,5]cyclopenta [1,2-c]pyrazol-6-yl)pyridin-2-yl)methanamine]",1 to 10
15,"CN(C)Cc1ccc(-c2cc3c(s2)Cc2c(-c4ccc5cnn(C)c5c4)n[nH]c2-3)cc1 [Compound 94, N,N-dimethyl-1-(4-(3-(1-methyl-1H-indazol-6-yl)-1,4-dihydrothieno [2′,3′:4,5]cyclopenta [1,2-c]pyrazol-6-yl)phenyl)methanamine]",1 to 10

# — US12448394B2, “Heterocyclic pyrazole derivatives as type III receptor tyrosine kinase inhibitors” (DEVELOPMENT CENTER FOR BIOTECHNOLOGY, priority 2019, dated 2025)
